Test results reported in patent US12077503B2, “Substituted cyclic amides and their use as herbicides” (FMC CORPORATION, priority 2015, dated 2024).
Where two headings read alike, the source gives them in different places.

Tests used:
Format in all cases: in vivo
[1] = tested on: Galium (catchweed bedstraw, Galium aparine); test: Test A postemergence; settings: Galium, post-emergence, 240 h; for pest or weed control at 125 g/ha: 125 g ai/ha
Method in brief: (§1)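 Seeds sprayed preemergence with a directed soil spray, or plants at 2 to 10 cm height and one- to two-leaf stage sprayed postemergence, with test chemicals in a non-phytotoxic solvent mixture containing surfactant, in loam soil–sand blend. Injury rated visually against untreated controls after about 10 d in greenhouse, 0 (no effect) to 100 (complete control).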

Kochia (Kochia scoparia) = test: Test A postemergence; settings: Bassia scoparia, post-emergence, 240 h; for pest or weed control at 125 g/ha: 125 g ai/ha
Method in brief: as §1

[2] = tested on: barnyardgrass (Echinochloa crus-galli); test: Test A postemergence; settings: Echinochloa crus-galli, post-emergence, 240 h; for pest or weed control at 125 g/ha: 125 g ai/ha
Method in brief: as §1

[3] = tested on: blackgrass (Alopecurus myosuroides); test: Test A postemergence; settings: Alopecurus myosuroides, post-emergence, 240 h; for pest or weed control at 125 g/ha: 125 g ai/ha
Method in brief: as §1

corn (Zea mays) = test: Test A postemergence; settings: Zea mays, post-emergence, 240 h
Method in brief: as §1

[4] = tested on: giant foxtail (Setaria faberii); test: Test A postemergence; settings: Setaria faberi, post-emergence, 240 h; for pest or weed control at 125 g/ha: 125 g ai/ha
Method in brief: as §1

[5] = tested on: pigweed (Amaranthus retroflexus); test: Test A postemergence; settings: Amaranthus retroflexus, post-emergence, 240 h; for pest or weed control at 125 g/ha: 125 g ai/ha
Method in brief: as §1

[6] = tested on: ragweed (common ragweed, Ambrosia elatior); test: Test A postemergence; settings: Ambrosia artemisiifolia, post-emergence, 240 h; for pest or weed control at 125 g/ha: 125 g ai/ha
Method in brief: as §1

[7] = tested on: ryegrass, Italian (Italian ryegrass, Lolium multiflorum); test: Test A postemergence; settings: Lolium multiflorum, post-emergence, 240 h; for pest or weed control at 125 g/ha: 125 g ai/ha
Method in brief: as §1

[8] = tested on: wheat (Triticum aestivum); test: Test A postemergence; settings: Triticum aestivum, post-emergence, 240 h; for plant injury at 125 g/ha: 125 g ai/ha
Method in brief: as §1

[9] = tested on: barnyardgrass (Echinochloa crus-galli); test: Test B flooded paddy test; settings: Echinochloa crus-galli, Flood, 250 g ai/ha, read-out: Barnyardgrass plant response rating
Method in brief: (§2)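 Greenhouse paddy pots with 2-leaf stage plants received compound by direct addition to floodwater 3 cm deep, kept at that level. Scored visually at 13–15 d versus controls (0 no effect; 100 complete control).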

[10] = tested on: ducksalad (Heteranthera limosa); test: Test B flooded paddy test; settings: Heteranthera limosa, Flood, 250 g ai/ha, read-out: Ducksalad plant response rating
Method in brief: as §2

rice (Oryra sativa) = test: Test B flooded paddy test; settings: Oryza sativa, Flood, 250 g ai/ha, read-out: Rice plant response rating
Method in brief: as §2

[11] = tested on: sedge, umbrella (small-flower umbrella sedge, Cyperus difformis); test: Test B flooded paddy test; settings: Cyperus difformis, Flood, 250 g ai/ha
Method in brief: as §2

[12] = scale of 0 to 100 where 0 is no effect and 100 is complete control
[13] = 0 to 100 scale where 0 is no effect and 100 is complete control

`Cc1ccc([C@H]2CN(C)C(=O)[C@@H]2C(=O)Nc2ccccc2S(C)(=O)=O)cc1C` [Compound 734] was tested. Which pest or weed control at 125 g/ha ([1]; postemergence, visual injury after approximately 10 d, 0 to 100 scale (0 no effect, 100 complete control), read-out: Plant response rating, Galium) did it give?
Its pest or weed control at 125 g/ha is 30%.

What about the pest or weed control at 125 g/ha (Kochia (Kochia scoparia); postemergence, visual injury after approximately 10 d, 0 to 100 scale (0 no effect, 100 complete control), read-out: Plant response rating, Kochia) of the same molecule?
Its pest or weed control at 125 g/ha is 0%.

And the pest or weed control at 125 g/ha ([2]; postemergence, visual injury after approximately 10 d, 0 to 100 scale (0 no effect, 100 complete control), read-out: Plant response rating, Barnyardgrass)?
The pest or weed control at 125 g/ha was 90%.

And the pest or weed control at 125 g/ha ([3]; postemergence, visual injury after approximately 10 d, 0 to 100 scale (0 no effect, 100 complete control), read-out: Plant response rating, Blackgrass)?
The pest or weed control at 125 g/ha was 20%.

What about the Corn plant response rating (crop injury, 0 = no effect, 100 = complete kill) at 125 g/ha (corn (Zea mays); 125 g ai/ha, postemergence, visual injury after approximately 10 d, 0 to 100 scale (0 no effect, 100 complete control)) of the same molecule?
The Corn plant response rating (crop injury, 0 = no effect, 100 = complete kill) at 125 g/ha was 40%.

What about the pest or weed control at 125 g/ha ([4]; postemergence, visual injury after approximately 10 d, 0 to 100 scale (0 no effect, 100 complete control), read-out: Plant response rating, Foxtail, Giant) of the same molecule?
The pest or weed control at 125 g/ha was 90%.

What about the pest or weed control at 125 g/ha ([5]; postemergence, visual injury after approximately 10 d, 0 to 100 scale (0 no effect, 100 complete control), read-out: Plant response rating, Pigweed) of the same molecule?
The pest or weed control at 125 g/ha was 0%.

What about the pest or weed control at 125 g/ha ([6]; postemergence, visual injury after approximately 10 d, 0 to 100 scale (0 no effect, 100 complete control), read-out: Plant response rating, Ragweed) of the same molecule?
The pest or weed control at 125 g/ha was 10%.

What about the pest or weed control at 125 g/ha ([7]; postemergence, visual injury after approximately 10 d, 0 to 100 scale (0 no effect, 100 complete control), read-out: Plant response rating, Ryegrass, Italian) of the same molecule?
The pest or weed control at 125 g/ha was 20%.

What about the plant injury at 125 g/ha ([8]; postemergence, visual injury after approximately 10 d, 0 to 100 scale (0 no effect, 100 complete control), read-out: Plant response rating, Wheat) of the same molecule?
The plant injury at 125 g/ha was 50%.

And the pest or weed control at 250 g/ha [9, 12]?
The pest or weed control at 250 g/ha was 60%.

What about the pest or weed control at 250 g/ha [10, 12] of the same molecule?
Its pest or weed control at 250 g/ha is 100%.

What about the pest or weed control at 250 g/ha (rice (Oryra sativa); [12]) of the same molecule?
Its pest or weed control at 250 g/ha is 0%.

What about the pest or weed control at 250 g/ha ([11]; scale of 0 to 100 where 0 is no effect and 100 is complete control, read-out: Sedge, Umbrella plant response rating) of the same molecule?
Its pest or weed control at 250 g/ha is 0%.

How did the pest or weed control at 125 g/ha ([1]; Postemergence, visual rating about 10 d after treatment, read-out: Galium plant response rating (0 to 100 scale)) turn out when `Cc1c(F)ccc([C@H]2CNC(=O)[C@@H]2C(=O)Nc2ccccc2F)c1F` [Compound 1326] was run?
The pest or weed control at 125 g/ha was 0%.

What about the pest or weed control at 500 g/ha ([1]; Postemergence, 500 g ai/ha, visual injury, 0 to 100 scale (0 no effect, 100 complete control), approx. 10 d, read-out: Plant response rating, Galium) of the same molecule?
The pest or weed control at 500 g/ha was 20%.

And the pest or weed control at 125 g/ha (Kochia (Kochia scoparia); Postemergence, visual rating about 10 d after treatment, read-out: Kochia plant response rating (0 to 100 scale))?
The pest or weed control at 125 g/ha was 0%.

And the pest or weed control at 500 g/ha (Kochia (Kochia scoparia); Postemergence, 500 g ai/ha, visual injury, 0 to 100 scale (0 no effect, 100 complete control), approx. 10 d, read-out: Plant response rating, Kochia)?
The pest or weed control at 500 g/ha was 0%.

And the pest or weed control at 125 g/ha ([2]; Postemergence, visual rating about 10 d after treatment, read-out: Barnyardgrass plant response rating (0 to 100 scale, 0 no effect, 100 complete control))?
Its pest or weed control at 125 g/ha is 70%.

And the pest or weed control at 500 g/ha ([2]; Postemergence, 500 g ai/ha, visual injury, 0 to 100 scale (0 no effect, 100 complete control), approx. 10 d, read-out: Plant response rating, Barnyardgrass)?
Its pest or weed control at 500 g/ha is 90%.

What about the pest or weed control at 125 g/ha ([3]; Postemergence, visual rating about 10 d after treatment, read-out: Blackgrass plant response rating (0 to 100 scale)) of the same molecule?
The pest or weed control at 125 g/ha was 0%.

What about the pest or weed control at 500 g/ha ([3]; Postemergence, 500 g ai/ha, visual injury, 0 to 100 scale (0 no effect, 100 complete control), approx. 10 d, read-out: Plant response rating, Blackgrass) of the same molecule?
The pest or weed control at 500 g/ha was 0%.

And the plant injury at 125 g/ha (corn (Zea mays); 125 g ai/ha, Postemergence, visual rating about 10 d after treatment, read-out: Corn plant response rating (0 to 100 scale))?
The plant injury at 125 g/ha was 0%.

And the Corn plant response rating (crop injury, 0 = no effect, 100 = complete kill) at 500 g/ha (corn (Zea mays); Postemergence, 500 g ai/ha, visual injury, 0 to 100 scale (0 no effect, 100 complete control), approx. 10 d)?
Its Corn plant response rating (crop injury, 0 = no effect, 100 = complete kill) at 500 g/ha is 0%.

And the pest or weed control at 125 g/ha ([4]; Postemergence, visual rating about 10 d after treatment, read-out: Foxtail, Giant plant response rating (0 to 100 scale))?
The pest or weed control at 125 g/ha was 0%.

What about the pest or weed control at 500 g/ha ([4]; Postemergence, 500 g ai/ha, visual injury, 0 to 100 scale (0 no effect, 100 complete control), approx. 10 d, read-out: Plant response rating, Foxtail, Giant) of the same molecule?
The pest or weed control at 500 g/ha was 0%.

What about the pest or weed control at 125 g/ha ([5]; Postemergence, visual rating about 10 d after treatment, read-out: Pigweed plant response rating (0 to 100 scale)) of the same molecule?
The pest or weed control at 125 g/ha was 0%.

And the pest or weed control at 500 g/ha ([5]; Postemergence, 500 g ai/ha, visual injury, 0 to 100 scale (0 no effect, 100 complete control), approx. 10 d, read-out: Plant response rating, Pigweed)?
Its pest or weed control at 500 g/ha is 0%.

And the pest or weed control at 125 g/ha ([6]; Postemergence, visual rating about 10 d after treatment, read-out: Ragweed plant response rating (0 to 100 scale))?
The pest or weed control at 125 g/ha was 0%.

What about the pest or weed control at 500 g/ha ([6]; Postemergence, 500 g ai/ha, visual injury, 0 to 100 scale (0 no effect, 100 complete control), approx. 10 d, read-out: Plant response rating, Ragweed) of the same molecule?
Its pest or weed control at 500 g/ha is 0%.

What about the pest or weed control at 125 g/ha ([7]; Postemergence, visual rating about 10 d after treatment, read-out: Ryegrass, Italian plant response rating (0 to 100 scale)) of the same molecule?
The pest or weed control at 125 g/ha was 0%.

What about the pest or weed control at 500 g/ha ([7]; Postemergence, 500 g ai/ha, visual injury, 0 to 100 scale (0 no effect, 100 complete control), approx. 10 d, read-out: Plant response rating, Ryegrass, Italian) of the same molecule?
Its pest or weed control at 500 g/ha is 20%.

What about the plant injury at 125 g/ha ([8]; Postemergence, visual rating about 10 d after treatment, read-out: Wheat plant response rating (0 to 100 scale)) of the same molecule?
Its plant injury at 125 g/ha is 0%.

And the plant injury at 500 g/ha ([8]; Postemergence, 500 g ai/ha, visual injury, 0 to 100 scale (0 no effect, 100 complete control), approx. 10 d, read-out: Plant response rating, Wheat)?
The plant injury at 500 g/ha was 0%.

And the pest or weed control at 250 g/ha [9, 13]?
Its pest or weed control at 250 g/ha is 0%.

And the pest or weed control at 250 g/ha [10, 13]?
Its pest or weed control at 250 g/ha is 70%.

And the pest or weed control at 250 g/ha (rice (Oryra sativa); [13])?
Its pest or weed control at 250 g/ha is 0%.

And the pest or weed control at 250 g/ha ([11]; 360 h, visually evaluated after 13 to 15 d, read-out: Plant response rating, Sedge, Umbrella (0 to 100 scale where 0 is no effect and 100 is complete control))?
The pest or weed control at 250 g/ha was 0%.
